According to ChEMBL document CHEMBL4699483, “Synthesis of functionalized derivatives of the gamma-secretase modulator BMS-932481 and identification of its major metabolite” (Bioorg Med Chem Lett, 2020):

What was measured:
[1] = Drug metabolism assessed as nitrile adduct formation in presence of KCN
[2] = Metabolic stability in human liver microsomes assessed as parent compound remaining incubated for 30 mins; format: ADME, Microsome; conditions: read-out: Stabilty
[3] = Metabolic stability in rat liver microsomes assessed as parent compound remaining incubated for 30 mins; format: ADME, Microsome; conditions: read-out: Stabilty
[4] = Drug metabolism assessed as (5R,7S)-7-(4-fluorophenyl)-2-(3-methoxy-4-(3-methyl-1H-1,2,4-triazol-1-yl)phenylamino)-4-(methylamino)-6,7-dihydro-5H-cyclopenta[d]pyrimidin-5-ol metabolite formation by LC/MS analysis
[5] = Drug metabolism assessed as iminoquinone A formation
[6] = Drug metabolism assessed as (S)-7-(4-fluorophenyl)-2-(3-methoxy-4-(3-methyl-1H-1,2,4-triazol-1-yl)phenylamino)-4-(methylamino)-6,7-dihydro-5H-cyclopenta[d]pyrimidin-5-one metabolite formation by LC/MS analysis
[7] = Glutathione reactivity in liver microsomes assessed as GSH-adduct formation; format: ADME
Gamma-secretase = experiment: Modulation of gamma secretase (unknown origin) assessed as inhibition of amyloid beta (1 to 42 residues) production; format: protein-complex assay, Homo sapiens
Cytochrome P450 3A4 = Cytochrome P450 3A4 (Homo sapiens, UniProt P08684); experiment: Time-dependent inhibition of CYP3A4 in human liver microsomes assessed as inhibition constant by Kitz-Wilson plot analysis; format: ADME
Cytochrome P450 3A4, sequence (P08684 whole entry): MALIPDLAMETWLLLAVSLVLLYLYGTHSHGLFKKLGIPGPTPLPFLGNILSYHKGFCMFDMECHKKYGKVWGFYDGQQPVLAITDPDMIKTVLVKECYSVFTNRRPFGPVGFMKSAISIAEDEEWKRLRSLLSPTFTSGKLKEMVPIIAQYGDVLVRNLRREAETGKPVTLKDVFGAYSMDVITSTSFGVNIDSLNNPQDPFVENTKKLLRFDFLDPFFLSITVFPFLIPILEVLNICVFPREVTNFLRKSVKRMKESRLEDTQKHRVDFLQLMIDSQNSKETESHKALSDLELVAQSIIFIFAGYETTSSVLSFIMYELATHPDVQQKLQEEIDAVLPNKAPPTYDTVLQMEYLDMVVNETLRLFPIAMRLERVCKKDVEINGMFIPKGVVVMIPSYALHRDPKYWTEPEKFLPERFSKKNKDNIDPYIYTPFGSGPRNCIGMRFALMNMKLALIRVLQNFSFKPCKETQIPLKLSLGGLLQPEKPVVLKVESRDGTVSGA

## CNc1nc(Nc2ccc(-n3cnc(C)n3)c(OC)c2)nc2c1CC[C@H]2c1ccc(F)cc1
[1]
  Drug metabolism: Metabolite detected
[2]
  remaining at 0.5 h: 94%
[3]
  remaining at 0.5 h: 89%
[4]
  Drug metabolism: Metabolite detected
[5]
  Drug metabolism: Metabolite detected
[6]
  Drug metabolism: Metabolite detected
[7]
  Drug metabolism: Not Active

## CNc1nc(Nc2ccc(-n3cnc(C)n3)c(OC)c2)nc2c1/C(=N/O)C[C@H]2c1ccc(F)cc1
Gamma-secretase
  IC50: 5 nM

## CNc1nc(Nc2ccc(-n3cnc(C)n3)c(OC)c2)nc2c1CC[C@@H]2c1ccc(F)cc1
[1]
  Drug metabolism: Metabolite detected
[2]
  remaining at 0.5 h: 94%
[3]
  remaining at 0.5 h: 89%
[4]
  Drug metabolism: Metabolite detected
[5]
  Drug metabolism: Metabolite detected
[6]
  Drug metabolism: Metabolite detected
[7]
  Drug metabolism: Not Active
Cytochrome P450 3A4
  Ki: 82500 nM

## CNc1nc(Nc2ccc(-n3cnc(C)n3)c(OC)c2)nc2c1CC[C@@]2(O)c1ccc(F)cc1
Gamma-secretase
  IC50: 2300 nM

## CNc1nc(Nc2ccc(-n3cnc(C)n3)c(OC)c2)nc2c1CC[C@]2(O)c1ccc(F)cc1
Gamma-secretase
  IC50: 96 nM

## CNc1nc(Nc2ccc(-n3cnc(C)n3)c(OC)c2)nc2c1/C(=N/O)CC2c1ccc(F)cc1 (racemic)
Gamma-secretase
  IC50: 10 nM

## CNc1nc(Nc2ccc(-n3cnc(C)n3)c(OC)c2)nc2c1C(=O)C[C@H]2c1ccc(F)cc1
Gamma-secretase
  IC50: 14 nM

## CNc1nc(Nc2ccc(-n3cnc(C)n3)c(OC)c2)nc2c1C(C)(O)CC2c1ccc(F)cc1 (racemic)
Gamma-secretase
  IC50: 60 nM

## CNc1nc(Nc2ccc(-n3cnc(C)n3)c(OC)c2)nc2c1[C@H](O)C[C@H]2c1ccc(F)cc1
Gamma-secretase
  IC50: 17 nM
